In PubChem BioAssay (NCI):
Values joined by “and” are separate entries in the source; they are usually repeats but may differ in a detail not shown here. Equal entries are not always repeated.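 Interpolation was linear, between the two tested concentrations surrounding the appropriate level; five concentrations were tested over 48 hours in 96-well plates. GI50 marks 50% less growth. TGI marks complete inhibition of growth.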

What was measured:
Assay in all cases: NCI anticancer screen, dose series, 48 h
U251 CNS = test system: U251 CNS
MCF7 breast = test system: MCF7 breast
OVCAR-8 ovarian = test system: OVCAR-8 ovarian
NCI-H460 lung = test system: NCI-H460 lung
SNB-19 CNS = test system: SNB-19 CNS
HCC-2998 colon = test system: HCC-2998 colon
OVCAR-5 ovarian = test system: OVCAR-5 ovarian
A549 NSCLC = test system: A549 NSCLC
HS 578T breast = test system: HS 578T breast
HL-60(TB) leukemia = test system: HL-60(TB) leukemia

SMILES	TGI (U251 CNS)	TGI (MCF7 breast)	TGI (OVCAR-8 ovarian)	TGI (NCI-H460 lung)	TGI (SNB-19 CNS)	TGI (HCC-2998 colon)	TGI (OVCAR-5 ovarian)	TGI (A549 NSCLC)	TGI (HS 578T breast)	TGI (HL-60(TB) leukemia)	GI50 (U251 CNS)	GI50 (HL-60(TB) leukemia)	GI50 (OVCAR-8 ovarian)	GI50 (SNB-19 CNS)
CCCCCCCCCCCCOCC(COP(=O)(O)OCCN=[N+]=[N-])OC(=O)CCCCCCCCCCC (configuration not stated)	> 100 µM	> 100 µM	> 100 µM	> 100 µM	> 100 µM	> 100 µM	> 100 µM	> 100 µM	–	–	–	–	–	–
CCCCCCCCCCCC1=C(O)C(=O)C(CC2=C(O)C(=O)C(CCCCCCCCCCC)=C(O)C2=O)=C(O)C1=O	> 100 µM	> 100 µM	> 100 µM	> 100 µM	73.3 µM	> 100 µM	> 100 µM	> 100 µM	> 100 µM	–	–	–	–	–
O=c1[nH]ncc2[nH]c3c(c12)CCc1ccccc1-3	> 100 µM	–	> 100 µM	77 µM	> 100 µM	–	> 100 µM	> 100 µM	59.2 µM	69 µM	–	–	–	–
NC1CCC2(O)c3ccccc3C2C1 (configuration not stated)	> 100 µM	–	> 100 µM	> 100 µM	> 100 µM	–	–	> 100 µM	–	> 100 µM	–	–	–	–
O=C1Nc2noc(=O)nc2NO1	> 200 µM	> 200 µM	> 200 µM	> 200 µM	> 200 µM	> 200 µM	> 200 µM	> 200 µM	> 200 µM	> 200 µM	–	–	–	–
Cc1cc(NC(=O)NC(=O)c2ccccc2NC(=O)CN(C)C)ccc1Oc1ncc(Br)cn1	> 86.6 µM	> 100 µM	> 100 µM	> 95 µM	> 100 µM	6.05 µM	> 100 µM	> 100 µM	> 23.9 µM	12.5 µM	–	–	–	–
CC[C@]1(c2ccc3c(c2)OCO3)C=[N+]([O-])O[C@H](OC2CCCC2(c2ccccc2)c2ccccc2)[C@@H]1OC(C)=O (some centres not stated)	> 62.6 µM	> 24.1 µM	–	4.91 µM	12.7 µM	4.05 µM	> 28.3 µM	11.4 µM	> 100 µM	12.1 µM	–	–	–	–
CCOC(=O)CNC(=O)c1[nH]cnc1/N=N/N(C)C	> 100 µM	–	> 100 µM	> 100 µM	> 100 µM	> 100 µM	> 100 µM	> 100 µM	–	> 100 µM	–	–	–	–
COc1cc2c(cc1O)NC(=O)[C@@H]1C[C@@H](O)CN1C2=O	> 100 µM	> 100 µM	> 100 µM	> 100 µM	> 100 µM	> 100 µM	> 100 µM	> 100 µM	> 100 µM	–	–	–	–	–
COc1cccc(/C=N/[N-]C(N)=O)c1[O-].[Cu+2].[OH3+]	19.7 µM	–	24.4 µM	36 µM	8.97 µM and 28.5 µM	31 µM	32.6 µM	–	–	> 100 µM	7.38 µM	10.8 µM	10.7 µM	14.9 µM
O=[N+]([O-])/C=C/c1cc(Cl)c(/C=C/[N+](=O)[O-])cc1Cl	–	> 33.2 µM	–	52.9 µM	6.91 µM	3.99 µM	–	36.1 µM	8.25 µM	–	–	–	–	–
CC(=O)c1c(-c2ccc(Cl)cc2)c(C#N)c(=S)n(C2OC(CO)C(O)C(O)C2O)c1C (configuration not stated)	> 100 µM	–	> 100 µM	> 100 µM	84.9 µM	> 100 µM	> 100 µM	> 100 µM	–	54 µM	–	–	–	–
Cc1ccc(S(=O)(=O)N/N=c2/sc3ccccc3n2C)cc1	> 100 µM	–	> 100 µM	> 100 µM	> 100 µM	> 100 µM	> 100 µM	> 100 µM	> 100 µM	> 100 µM	–	–	–	–
CCOC(=O)C(Cc1ccc(N=NN(C)C)cc1)NC(=O)CC1c2ccccc2-c2ccccc21 (configuration not stated)	> 100 µM	–	> 100 µM	> 100 µM	> 100 µM	> 100 µM	> 100 µM	> 100 µM	–	> 100 µM	–	–	–	–
C/C(CCN(C)C)=N/O	14.6 µM	–	22.8 µM	58.5 µM	> 100 µM	25.2 µM	32.9 µM	17.4 µM	–	13.5 µM	–	–	–	–
O=c1c2ccc(Cl)cc2oc2c(CSc3ccccc3)cccc12	> 100 µM	> 100 µM	> 100 µM	90.4 µM	> 86.5 µM	> 100 µM	> 100 µM	> 100 µM	> 100 µM	–	–	–	–	–
COc1ccccc1N=Nc1c(O)ccc2ccccc12	> 62.4 µM and 40.4 µM	> 100 µM	> 100 µM	38.1 µM	> 74.7 µM and 90.4 µM	71 µM	> 100 µM	> 100 µM	> 100 µM	–	–	–	–	–
Cc1nc(C(=Nc2ccc(Br)cc2)Nn2cnnc2)no1	> 100 µM	> 100 µM	> 100 µM	> 100 µM	> 100 µM	> 100 µM	> 100 µM	> 100 µM	> 100 µM	–	–	–	–	–
Nc1c(C(=O)O)c2ccc([N+](=O)[O-])cc2c(=O)n1-c1nc2ccccc2s1	> 100 µM	> 100 µM	> 100 µM	> 100 µM	> 100 µM	> 100 µM	> 100 µM	> 100 µM	> 100 µM	–	–	–	–	–
Cn1c(CO)ccc1-c1ccc(-c2ccc(CO)[se]2)[se]1	24.4 µM	> 40 µM	55.6 µM	> 100 µM	> 100 µM	22.5 µM	–	> 100 µM	> 100 µM	> 59.1 µM	–	–	–	–
COc1cc2c(cc1OC)C1=C(C=O)c3ccc(OC)c(OC)c3C(O)N1CC2 (configuration not stated)	45.9 µM	> 100 µM	–	> 100 µM	> 100 µM	31.7 µM	> 100 µM	> 100 µM	> 100 µM	75.2 µM	–	–	–	–
CC1CC(c2ccccc2)=Nc2ccccc2S1 (configuration not stated)	> 100 µM	–	> 100 µM	> 100 µM	> 100 µM	> 100 µM	> 100 µM	> 100 µM	–	> 100 µM	–	–	–	–
CC(C)=CC1C(C(=O)OCc2cc3c(cc2Cl)OCO3)C1(C)C (configuration not stated)	35.1 µM	–	> 100 µM	> 100 µM	> 100 µM	58 µM	> 100 µM	> 100 µM	> 100 µM	–	–	–	–	–
